In patent US9067945B2, “Selective phosphodiesterase 9A inhibitors as medicaments for improving cognitive processes” (Boehringer Ingehleim International GmbH, priority 2002, dated 2015):
Entries after “also recorded” stand apart in the source; their conditions may differ. Each block holds one compound with its values, some of them ahead of it.

Key:
[1] = molecular target: PDE2A (Homo sapiens (Human), UniProt O00408); experiment: PDE inhibition, recombinant PDE2A (SPA); assay type: biochemical; settings: Isoenzyme PDE2A
Excerpt: (§1) Recombinant PDE1C (GenBank/EMBL Accession Number: NM_005020, Loughney et al. J. Biol. Chem. 1996 271, 796-806), PDE2A (GenBank/EMBL Accession Number: NM_002599, Rosman et al. Gene 1997 191, 89-95), PDE3B (GenBank/EMBL Accession Number: NM_000922, Miki et al. Genomics 1996, 36, 476-485), PDE4B (GenBank/EMBL Accession Number: NM_002600, Obernolte et al. Gene. 1993, 129, 239-247), PDE5A (GenBank/EMBL Accession Number: NM_001083, Loughney et al. Gene 1998, 216, 139-147), PDE7B (GenBank/EMBL Accession Number: NM_018945, Hetman et al. Proc. Natl. Acad. Sci. U.S.A. 2000, 97, 472-476), PDE8A (GenBank/EMBL Accession Number: AF—056490, Fisher et al. Biochem. Biophys. Res. Commun. […]
(§2) The test substances are dissolved in 100% DMSO and serially diluted to determine their in vitro effect on PDE 9A. […] The plates are then measured for 30 s per well in a Microbeta scintillation counter (Wallac Inc., Atlanta, Ga.). IC50 values are determined from the graphical plot of the substance concentration versus the percentage inhibition.
(§3) The in vitro effect of test substances on recombinant PDE3B, PDE4B, PDE7B, PDE8A, PDE10A and PDE11A is determined in accordance with the assay protocol described above for PDE9A with the following adaptations: [5′,8-^3H] adenosine 3′,5′-cyclic phosphate (1 μCi/μL; Amersham Pharmacia Biotech., Piscataway, N.J.) is used as substrate. […]

[2] = molecular target: PDE3B (Homo sapiens (Human), UniProt Q13370); experiment: PDE inhibition, recombinant PDE3B (SPA); assay type: biochemical; settings: Isoenzyme PDE3B
Excerpt: as §1, §2, §3

[3] = molecular target: PDE4B (Homo sapiens (Human), UniProt Q07343); experiment: PDE inhibition, recombinant PDE4B (SPA); assay type: biochemical; settings: Isoenzyme PDE4B
[4] = molecular target: PDE5A (Homo sapiens (Human), UniProt O76074); experiment: PDE inhibition, recombinant PDE5A (SPA); assay type: biochemical; settings: Isoenzyme PDE5A
Excerpt: as §1, §2, §3

[5] = molecular target: PDE7B (Homo sapiens (Human), UniProt Q9NP56); experiment: PDE inhibition, recombinant PDE7B (SPA); assay type: biochemical; settings: Isoenzyme PDE7B
Excerpt: as §1, §2, §3

[6] = molecular target: PDE8A (Homo sapiens, UniProt O60658); experiment: PDE inhibition, recombinant PDE8A (SPA); assay type: biochemical; settings: Isoenzyme PDE8A
[7] = molecular target: PDE10A (Homo sapiens (Human), UniProt Q9Y233); experiment: PDE inhibition, recombinant PDE10A (SPA); assay type: biochemical; settings: Isoenzyme PDE10A
Excerpt: as §1, §2, §3

[8] = molecular target: PDE11 (Homo sapiens (Human), UniProt Q9HCR9); experiment: PDE inhibition, recombinant PDE11A (SPA); assay type: biochemical; settings: Isoenzyme PDE11, human
Excerpt: as §1, §2, §3

[9] = test system: primary rat (E18) cortex cultures, intracellular cGMP; experiment: Increasing the intracellular neuronal cGMP concentration in cell cultures; assay type: cell-based; settings: primary rat cortical neurons, incubation 20 min, FIG. 1
Method: Rat embryos (embryonic day E17-E19) were decapitated, and the heads were transferred into dissection dishes filled with dissection medium (DMEM, penicillin/streptomycin; both from Gibco). The scalp and the roof of the skull were removed, and the exposed brains were transferred into another Petri dish with dissection medium. Using a binocular microscope and two forceps, the cerebrum (cortex) was isolated and cooled to 4° C. with ice. This dissection and the isolation of the cortical neurons were then carried out in accordance with a standard protocol using the Papain kit (Worthington Biochemical Corporation, Lakewood, N.J. 08701, USA) (Huettner et al. J. Neurosci. 1986, 6, 3044-3060). The mechanically isolated cortical neurons were cultivated at 150,000 cells/well in 200 μl of neurobasal medium/well (neurobasal; B27 supplement; 2 mM L-glutamine; in the presence of penicillin/streptomycin; all agents from Gibco) in 96-well plates (pretreated with poly-D-lysine/100 μg/ml for 30 min) under standard conditions (37° C., 5% CO2) for 7 days. After 7 days, the medium was removed and the cells were washed with HBSS buffer (Hank's balanced salt solution, Gibco/BRL). […] Subsequently, the cells were lyzed in 200 μl of lysis buffer (cGMP kit code RPN 226; from Amersham Pharmacia Biotech.), and the cGMP concentration was measured as stated by the manufacturer. […]

[10] = test system: rat hippocampus slices, fEPSP after weak tetanus; experiment: Long-term potentiation in hippocampus slices; settings: 10 μM, flushed in 10 minutes before to 30 minutes after weak tetanus, vs 0.01% DMSO control, FIG. 2
[11] = test system: rats, learning and memory; experiment: Social recognition test; assay type: in vivo, rat; settings: intraperitoneal 0.1-3.0 mg/kg directly after trial 1, retention time 24 hours, FIG. 3
Method: Adult rats housed in groups were placed singly in test cages 30 min before the start of the test. Four minutes before the start of the test, the test animal was put in an observation box. After this adaptation time, a juvenile animal was put in with the test animal and the absolute time for which the adult animal inspected the young one was measured for 2 min (trial 1). All behaviors clearly directed at the young animal were measured, i.e. anogenital inspection, pursuit and grooming, during which the old animal was no further than 1 cm from the young animal. The juvenile was then removed, and the adult was treated with Example 2 or vehicle and subsequently returned to its own cage. The test was repeated after a retention time of 24 hours (trial 2). A diminished social interaction time compared with trial 1 would indicate that the adult rat remembers the young animal.
The adult animals received intraperitoneal injections directly following trial 1 either with vehicle (10% ethanol, 20% Solutol, 70% physiological saline) or 0.1 mg/kg, 0.3 mg/kg, 1.0 mg/kg or 3.0 mg/kg of Example 2 dissolved in 10% ethanol, 20% Solutol, 70% physiological saline. […] They had consequently forgotten that they had already had contact with the young animal.

[12] = molecular target: Human PDE9A (Homo sapiens (Human), UniProt O76083); settings: concentrations of up to 100 μM; cited from earlier work
[13] = molecular target: Murine PDE9A (Mus musculus (Mouse), UniProt O70628); settings: concentrations below 200 μM; cited from earlier work

Sequence of Human PDE9A (O76083 whole entry): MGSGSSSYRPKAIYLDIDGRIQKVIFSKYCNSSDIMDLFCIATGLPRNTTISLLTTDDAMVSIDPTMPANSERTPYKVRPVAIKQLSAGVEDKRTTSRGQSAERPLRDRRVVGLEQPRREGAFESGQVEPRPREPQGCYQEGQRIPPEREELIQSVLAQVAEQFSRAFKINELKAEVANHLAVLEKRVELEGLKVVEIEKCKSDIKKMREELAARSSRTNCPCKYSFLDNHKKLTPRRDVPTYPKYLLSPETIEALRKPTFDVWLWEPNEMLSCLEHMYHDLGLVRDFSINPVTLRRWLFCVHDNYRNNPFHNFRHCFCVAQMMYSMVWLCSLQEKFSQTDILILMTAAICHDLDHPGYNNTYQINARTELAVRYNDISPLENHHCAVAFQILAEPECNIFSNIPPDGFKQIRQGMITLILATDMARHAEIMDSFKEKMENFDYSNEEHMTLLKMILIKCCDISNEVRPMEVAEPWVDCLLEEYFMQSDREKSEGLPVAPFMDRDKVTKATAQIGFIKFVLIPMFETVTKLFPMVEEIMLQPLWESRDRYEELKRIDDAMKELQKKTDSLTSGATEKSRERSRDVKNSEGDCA
Sequence of PDE10A (Q9Y233 other isoform, or with tags, fused parts or gaps): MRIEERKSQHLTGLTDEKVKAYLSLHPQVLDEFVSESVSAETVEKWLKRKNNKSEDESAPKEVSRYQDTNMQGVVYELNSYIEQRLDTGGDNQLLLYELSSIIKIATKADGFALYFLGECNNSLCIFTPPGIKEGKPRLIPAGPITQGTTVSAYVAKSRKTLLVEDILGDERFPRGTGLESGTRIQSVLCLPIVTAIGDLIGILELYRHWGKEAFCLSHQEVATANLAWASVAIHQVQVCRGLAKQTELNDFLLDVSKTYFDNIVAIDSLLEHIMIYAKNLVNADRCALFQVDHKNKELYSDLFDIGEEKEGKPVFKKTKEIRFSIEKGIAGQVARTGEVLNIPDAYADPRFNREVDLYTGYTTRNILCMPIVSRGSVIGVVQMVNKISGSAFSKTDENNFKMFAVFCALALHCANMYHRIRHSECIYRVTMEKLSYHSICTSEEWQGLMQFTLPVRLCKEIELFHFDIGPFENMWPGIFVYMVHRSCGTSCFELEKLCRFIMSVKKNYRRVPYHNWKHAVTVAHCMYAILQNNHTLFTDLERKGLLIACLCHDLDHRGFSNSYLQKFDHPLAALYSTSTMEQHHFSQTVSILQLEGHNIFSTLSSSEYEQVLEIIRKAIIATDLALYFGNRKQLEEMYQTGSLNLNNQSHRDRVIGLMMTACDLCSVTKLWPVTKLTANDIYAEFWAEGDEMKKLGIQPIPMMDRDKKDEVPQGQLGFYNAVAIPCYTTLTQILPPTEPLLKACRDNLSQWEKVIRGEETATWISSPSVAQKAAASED
Sequence of PDE8A (O60658 whole entry, looked up): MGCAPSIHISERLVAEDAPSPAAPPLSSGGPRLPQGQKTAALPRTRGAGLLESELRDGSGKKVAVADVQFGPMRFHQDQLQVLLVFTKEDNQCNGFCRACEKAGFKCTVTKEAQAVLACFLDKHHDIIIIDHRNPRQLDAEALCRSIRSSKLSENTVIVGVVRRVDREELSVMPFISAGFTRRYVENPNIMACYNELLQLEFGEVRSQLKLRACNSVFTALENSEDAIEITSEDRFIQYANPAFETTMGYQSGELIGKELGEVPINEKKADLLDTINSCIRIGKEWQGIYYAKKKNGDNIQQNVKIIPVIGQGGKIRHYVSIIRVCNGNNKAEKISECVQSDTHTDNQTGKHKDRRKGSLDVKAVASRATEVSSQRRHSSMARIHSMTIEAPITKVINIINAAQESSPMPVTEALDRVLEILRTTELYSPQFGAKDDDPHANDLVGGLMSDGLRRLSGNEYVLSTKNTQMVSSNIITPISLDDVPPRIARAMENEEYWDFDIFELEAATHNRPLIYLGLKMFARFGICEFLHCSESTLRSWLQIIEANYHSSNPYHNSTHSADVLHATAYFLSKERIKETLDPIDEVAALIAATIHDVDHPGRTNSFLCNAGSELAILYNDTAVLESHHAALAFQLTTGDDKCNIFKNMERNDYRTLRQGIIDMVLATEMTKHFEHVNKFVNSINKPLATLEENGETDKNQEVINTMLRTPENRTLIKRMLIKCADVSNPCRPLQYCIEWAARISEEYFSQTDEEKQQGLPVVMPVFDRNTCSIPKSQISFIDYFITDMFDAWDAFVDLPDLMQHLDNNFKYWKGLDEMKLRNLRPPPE
Sequence of PDE2A (O00408 whole entry): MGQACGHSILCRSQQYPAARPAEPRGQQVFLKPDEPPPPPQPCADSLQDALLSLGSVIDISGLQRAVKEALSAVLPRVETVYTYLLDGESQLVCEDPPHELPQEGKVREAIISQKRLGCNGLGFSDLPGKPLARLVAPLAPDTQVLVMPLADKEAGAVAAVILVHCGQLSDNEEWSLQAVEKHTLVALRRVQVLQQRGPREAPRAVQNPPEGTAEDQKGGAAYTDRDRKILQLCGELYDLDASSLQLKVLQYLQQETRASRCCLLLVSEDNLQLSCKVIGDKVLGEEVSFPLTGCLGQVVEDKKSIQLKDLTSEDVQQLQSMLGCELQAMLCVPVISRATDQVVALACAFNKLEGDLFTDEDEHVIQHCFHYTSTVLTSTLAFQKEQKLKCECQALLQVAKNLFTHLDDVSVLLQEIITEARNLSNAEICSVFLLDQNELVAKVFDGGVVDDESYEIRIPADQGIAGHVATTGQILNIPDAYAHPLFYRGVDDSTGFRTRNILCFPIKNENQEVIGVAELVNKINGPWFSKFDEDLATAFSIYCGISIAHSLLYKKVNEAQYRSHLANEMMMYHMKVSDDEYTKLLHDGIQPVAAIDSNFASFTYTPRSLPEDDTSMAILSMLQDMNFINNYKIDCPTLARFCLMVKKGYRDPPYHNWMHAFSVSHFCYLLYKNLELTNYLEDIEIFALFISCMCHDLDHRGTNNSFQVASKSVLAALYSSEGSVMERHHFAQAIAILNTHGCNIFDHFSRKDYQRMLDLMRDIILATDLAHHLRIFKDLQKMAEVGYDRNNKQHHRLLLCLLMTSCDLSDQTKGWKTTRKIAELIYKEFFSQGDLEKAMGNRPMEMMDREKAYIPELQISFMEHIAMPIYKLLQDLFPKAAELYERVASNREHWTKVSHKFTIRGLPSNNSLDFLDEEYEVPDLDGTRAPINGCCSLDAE
Sequence of PDE4B (Q07343 other isoform, or with tags, fused parts or gaps isoform Q07343-2): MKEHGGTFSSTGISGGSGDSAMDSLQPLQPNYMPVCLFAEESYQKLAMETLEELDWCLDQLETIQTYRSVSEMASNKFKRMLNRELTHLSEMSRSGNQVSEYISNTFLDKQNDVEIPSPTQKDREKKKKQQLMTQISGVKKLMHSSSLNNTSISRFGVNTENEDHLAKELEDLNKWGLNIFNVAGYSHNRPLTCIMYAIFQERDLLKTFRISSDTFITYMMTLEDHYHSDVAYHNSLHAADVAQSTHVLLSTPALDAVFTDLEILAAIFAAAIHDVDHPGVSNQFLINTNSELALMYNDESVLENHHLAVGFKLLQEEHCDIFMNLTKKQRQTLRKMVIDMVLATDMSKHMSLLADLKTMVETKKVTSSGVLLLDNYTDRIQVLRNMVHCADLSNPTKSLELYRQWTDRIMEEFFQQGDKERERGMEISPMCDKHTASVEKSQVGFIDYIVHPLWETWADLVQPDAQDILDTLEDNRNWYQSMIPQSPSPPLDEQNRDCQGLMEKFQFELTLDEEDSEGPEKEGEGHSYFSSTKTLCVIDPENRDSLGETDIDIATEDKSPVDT
Sequence of PDE7B (Q9NP56 whole entry): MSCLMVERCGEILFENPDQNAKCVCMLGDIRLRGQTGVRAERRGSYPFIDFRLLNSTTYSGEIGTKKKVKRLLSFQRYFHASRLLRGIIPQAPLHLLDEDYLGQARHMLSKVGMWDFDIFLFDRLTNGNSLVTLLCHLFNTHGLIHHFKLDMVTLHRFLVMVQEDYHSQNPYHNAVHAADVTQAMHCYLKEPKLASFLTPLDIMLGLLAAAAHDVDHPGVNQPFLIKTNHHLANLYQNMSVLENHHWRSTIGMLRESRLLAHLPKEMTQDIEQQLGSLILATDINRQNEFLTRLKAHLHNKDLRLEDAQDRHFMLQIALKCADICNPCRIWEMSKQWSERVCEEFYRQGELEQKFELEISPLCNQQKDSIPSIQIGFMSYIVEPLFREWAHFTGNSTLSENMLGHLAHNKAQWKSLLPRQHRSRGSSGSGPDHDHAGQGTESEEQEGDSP
Sequence of PDE11 (Q9HCR9 445-933, change not shown): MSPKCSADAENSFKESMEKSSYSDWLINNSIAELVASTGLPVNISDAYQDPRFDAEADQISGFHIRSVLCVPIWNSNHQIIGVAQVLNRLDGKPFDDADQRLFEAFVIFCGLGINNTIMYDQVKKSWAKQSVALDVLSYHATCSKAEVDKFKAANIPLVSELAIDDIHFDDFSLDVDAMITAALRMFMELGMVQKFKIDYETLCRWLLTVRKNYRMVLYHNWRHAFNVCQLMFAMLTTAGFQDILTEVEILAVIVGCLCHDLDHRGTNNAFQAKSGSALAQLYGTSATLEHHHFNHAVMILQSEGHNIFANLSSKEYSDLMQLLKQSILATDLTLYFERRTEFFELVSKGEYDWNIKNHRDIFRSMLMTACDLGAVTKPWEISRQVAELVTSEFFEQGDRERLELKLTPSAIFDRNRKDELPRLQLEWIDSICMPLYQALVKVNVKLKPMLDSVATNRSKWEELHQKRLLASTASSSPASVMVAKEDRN

- melting point: 147 °C
Structure (SMILES): O=c1[nH]c(CC2CCCCC2)nc2c1cnn2C1CCCC1

- IC50 [1]: > 4 µM
- IC50 [2]: > 4 µM
- IC50 [3]: > 4 µM
- IC50 [4]: > 4 µM
- IC50 [5]: > 4 µM
- IC50 [6]: > 4 µM
- IC50 [7]: > 4 µM
- IC50 [8]: > 4 µM
- melting point: 122 °C
Structure (SMILES): CCC(CC)n1ncc2c(=O)[nH]c(CC3CCCCC3)nc21 [Example 2, 6-(Cyclohexylmethyl)-1-(1-ethylpropyl)-1,5-dihydro-4H-pyrazolo[3,4-d]-pyrimidin-4-one]
- cGMP content of primary neurons [9]: increase in the cGMP content
- LTP / potentiation of fEPSP after weak tetanus [10]: significant increase in the LTP; also recorded: significantly augmented the increase in the fEPSP
- social interaction time in trial 2 compared with vehicle [11]: significantly reduced

Structure (SMILES): CC(C)Cn1c(=O)n(C)c(=O)c2[nH]cnc21 [IBMX]
- inhibition on the isolated enzyme [12]: no inhibition
- inhibition of murine PDE9A [13]: not inhibited

Structure (SMILES): CC(=O)Nc1ccc(-c2c[nH]c(=O)cn2)cc1 [SKF94120]
- inhibition on the isolated enzyme [12]: no inhibition

Structure (SMILES): OCCN(CCO)c1nc(N2CCCCC2)c2nc(N(CCO)CCO)nc(N3CCCCC3)c2n1 [dipyridamole]
- inhibition on the isolated enzyme [12]: no inhibition

Structure (SMILES): COc1ccc(C2CNC(=O)C2)cc1OC1CCCC1 (stereo not shown) [rolipram]
- inhibition on the isolated enzyme [12]: no inhibition

Structure (SMILES): CCOC(=O)C1=C[C@]2(CC)CCCN3CCc4c(n1c1ccccc41)[C@@H]32 [vinpocetine]
- inhibition on the isolated enzyme [12]: no inhibition
